According to ChEMBL document CHEMBL3885881, “DrugMatrix”:

Species on record: Rattus norvegicus
Assay: DrugMatrix - Regimen: Daily Repeat
Assay type: toxicity, organism-based, Sprague-Dawley
Set-up: regimen Daily Repeat, gender Male, age 6-8 weeks
Conditions: in vivo, po, route oral GAVAGE, vehicle 100 % WATER; for ABSOLUTE BASOPHIL / ABSOLUTE EOSINOPHIL / ABSOLUTE LYMPHOCYTE / ABSOLUTE MONOCYTE / ABSOLUTE SEGMENTED NEUTROPHIL / BASOPHIL / EOSINOPHIL / ERYTHROCYTE COUNT / HEMATOCRIT / HEMOGLOBIN / LEUKOCYTE COUNT / LYMPHOCYTE / MEAN CORPUSCULAR HEMOGLOBIN / MEAN CORPUSCULAR HEMOGLOBIN CONCENTRATION / MEAN CORPUSCULAR VOLUME / MONOCYTE / NEUTROPHIL / NUCLEATED RED BLOOD CELLS / PLATELET COUNT: tissue Blood; for ALANINE AMINOTRANSFERASE / ALBUMIN / ALKALINE PHOSPHATASE / ASPARTATE AMINOTRANSFERASE / BLOOD UREA NITROGEN / CARBON DIOXIDE / CHLORIDE / CHOLESTEROL / CREATINE PHOSPHOKINASE / CREATININE / GLUCOSE / LACTATE DEHYDROGENASE / LIPASE / PHOSPHORUS / POTASSIUM / SODIUM / TOTAL BILIRUBIN / TOTAL PROTEIN / URIC ACID: tissue Plasma
[1] = 0 mg/kg, 72 h, dose level Control, time 3 day
[2] = 0 mg/kg, 120 h, dose level Control, time 5 day
[3] = 20 mg/kg, 72 h, dose level Low, time 3 day

With `CCCC(C)C1(CC)C(=O)NC(=O)NC1=O` (centres undefined) [PENTOBARBITAL] the “ABSOLUTE BASOPHIL” value [1] was 0 CELLS/uL, the “ABSOLUTE EOSINOPHIL” value [1] was 32.5 CELLS/uL and the “ABSOLUTE LYMPHOCYTE” value [1] was 9305.83 CELLS/uL. The “ABSOLUTE MONOCYTE” value [1] was 43.83 CELLS/uL, the “ABSOLUTE SEGMENTED NEUTROPHIL” value [1] was 817.83 CELLS/uL and the BASOPHIL [1] was 0%. The EOSINOPHIL [1] was 0.33%, the “ERYTHROCYTE COUNT” value [1] was 5.38 x10E6/uL and the HEMATOCRIT [1] was 33.63%. The HEMOGLOBIN [1] was 13.17 G/DL, the “LEUKOCYTE COUNT” value [1] was 10.2 x10E3/uL and the LYMPHOCYTE [1] was 91.17%. The “MEAN CORPUSCULAR HEMOGLOBIN” value [1] was 24.5 pg, the “MEAN CORPUSCULAR HEMOGLOBIN CONCENTRATION” value [1] was 39.13 G/DL and the “MEAN CORPUSCULAR VOLUME” value [1] was 62.53 fL. The MONOCYTE [1] was 0.5%, the NEUTROPHIL [1] was 8% and the “NUCLEATED RED BLOOD CELLS” value [1] was 0.17 /100WBC. The “PLATELET COUNT” value [1] was 858 x10E3/uL, the “ALANINE AMINOTRANSFERASE” value [1] was 55.67 u/L and the ALBUMIN [1] was 4.07 G/DL. The “ALKALINE PHOSPHATASE” value [1] was 337 u/L, the “ASPARTATE AMINOTRANSFERASE” value [1] was 84 u/L and the “BLOOD UREA NITROGEN” value [1] was 13.17 mg/dL. The “CARBON DIOXIDE” value [1] was 34.17 mmol/L, the CHLORIDE [1] was 99.33 MEQ/L and the CHOLESTEROL [1] was 78.83 mg/dL. The “CREATINE PHOSPHOKINASE” value [1] was 576.83 u/L, the CREATININE [1] was 0.17 mg/dL and the GLUCOSE [1] was 152.67 mg/dL. The “LACTATE DEHYDROGENASE” value [1] was 147.83 u/L, the LIPASE [1] was 9.5 u/L and the PHOSPHORUS [1] was 10.78 mg/dL. For the same molecule, the POTASSIUM [1] was 6.34 MEQ/L, the SODIUM [1] was 144.12 MEQ/L and the “TOTAL BILIRUBIN” value [1] was 0.18 mg/dL. For the same molecule, the “TOTAL PROTEIN” value [1] was 6.08 G/DL, the “URIC ACID” value [1] was 0.65 mg/dL and the “ABSOLUTE BASOPHIL” value [2] was 0 CELLS/uL. For the same molecule, the “ABSOLUTE EOSINOPHIL” value [2] was 31.17 CELLS/uL, the “ABSOLUTE LYMPHOCYTE” value [2] was 7918.33 CELLS/uL and the “ABSOLUTE MONOCYTE” value [2] was 58.33 CELLS/uL. For the same molecule, the “ABSOLUTE SEGMENTED NEUTROPHIL” value [2] was 725.5 CELLS/uL, the BASOPHIL [2] was 0% and the EOSINOPHIL [2] was 0.33%. The “ERYTHROCYTE COUNT” value [2] was 5.32 x10E6/uL, the HEMATOCRIT [2] was 33.53% and the HEMOGLOBIN [2] was 13.17 G/DL. The “LEUKOCYTE COUNT” value [2] was 8.73 x10E3/uL, the LYMPHOCYTE [2] was 90.33% and the “MEAN CORPUSCULAR HEMOGLOBIN” value [2] was 24.82 pg. The “MEAN CORPUSCULAR HEMOGLOBIN CONCENTRATION” value [2] was 39.33 G/DL, the “MEAN CORPUSCULAR VOLUME” value [2] was 63.12 fL and the MONOCYTE [2] was 0.67%. The NEUTROPHIL [2] was 8.67%, the “NUCLEATED RED BLOOD CELLS” value [2] was 0 /100WBC and the “PLATELET COUNT” value [2] was 1144.83 x10E3/uL. The “ALANINE AMINOTRANSFERASE” value [2] was 60.5 u/L, the ALBUMIN [2] was 3.97 G/DL and the “ALKALINE PHOSPHATASE” value [2] was 343.17 u/L. For the same molecule, the “ASPARTATE AMINOTRANSFERASE” value [2] was 80.83 u/L, the “BLOOD UREA NITROGEN” value [2] was 15 mg/dL and the “CARBON DIOXIDE” value [2] was 31 mmol/L. The CHLORIDE [2] was 99.75 MEQ/L, the CHOLESTEROL [2] was 71.5 mg/dL and the “CREATINE PHOSPHOKINASE” value [2] was 237.17 u/L. For the same molecule, the CREATININE [2] was 0.17 mg/dL, the GLUCOSE [2] was 137 mg/dL and the “LACTATE DEHYDROGENASE” value [2] was 146.17 u/L. It also gave an LIPASE [2] of 11.5 u/L, a PHOSPHORUS [2] of 10.13 mg/dL and a POTASSIUM [2] of 6 MEQ/L. For the same molecule, the SODIUM [2] was 145 MEQ/L, the “TOTAL BILIRUBIN” value [2] was 0.13 mg/dL and the “TOTAL PROTEIN” value [2] was 5.82 G/DL. The “URIC ACID” value [2] was 0.62 mg/dL, the “ABSOLUTE BASOPHIL” value [3] was 0 CELLS/uL and the “ABSOLUTE EOSINOPHIL” value [3] was 0 CELLS/uL. For the same molecule, the “ABSOLUTE LYMPHOCYTE” value [3] was 9302.33 CELLS/uL, the “ABSOLUTE MONOCYTE” value [3] was 108 CELLS/uL and the “ABSOLUTE SEGMENTED NEUTROPHIL” value [3] was 989.67 CELLS/uL. For the same molecule, the BASOPHIL [3] was 0%, the EOSINOPHIL [3] was 0% and the “ERYTHROCYTE COUNT” value [3] was 5.3 x10E6/uL. The HEMATOCRIT [3] was 32.83%, the HEMOGLOBIN [3] was 12.6 G/DL and the “LEUKOCYTE COUNT” value [3] was 10.4 x10E3/uL. For the same molecule, the LYMPHOCYTE [3] was 88.33%, the “MEAN CORPUSCULAR HEMOGLOBIN” value [3] was 23.77 pg and the “MEAN CORPUSCULAR HEMOGLOBIN CONCENTRATION” value [3] was 38.37 G/DL. The “MEAN CORPUSCULAR VOLUME” value [3] was 61.97 fL, the MONOCYTE [3] was 1.33% and the NEUTROPHIL [3] was 10.33%. For the same molecule, the “NUCLEATED RED BLOOD CELLS” value [3] was 0 /100WBC, the “PLATELET COUNT” value [3] was 1066.67 x10E3/uL and the “ALANINE AMINOTRANSFERASE” value [3] was 57.67 u/L. The ALBUMIN [3] was 3.9 G/DL, the “ALKALINE PHOSPHATASE” value [3] was 334.33 u/L and the “ASPARTATE AMINOTRANSFERASE” value [3] was 90.67 u/L. The “BLOOD UREA NITROGEN” value [3] was 13.67 mg/dL, the “CARBON DIOXIDE” value [3] was 35.33 mmol/L and the CHLORIDE [3] was 100 MEQ/L. For the same molecule, the CHOLESTEROL [3] was 80.67 mg/dL, the “CREATINE PHOSPHOKINASE” value [3] was 384.67 u/L and the CREATININE [3] was 0.14 mg/dL. The GLUCOSE [3] was 140 mg/dL, the “LACTATE DEHYDROGENASE” value [3] was 137 u/L and the LIPASE [3] was 9 u/L. The PHOSPHORUS [3] was 11.23 mg/dL, the POTASSIUM [3] was 5.89 MEQ/L and the SODIUM [3] was 147.3 MEQ/L. For the same molecule, the “TOTAL BILIRUBIN” value [3] was 0.13 mg/dL, the “TOTAL PROTEIN” value [3] was 5.67 G/DL and the “URIC ACID” value [3] was 0.7 mg/dL.
